# Measured values as given in patent publication US7785828B1 (priority 2003, dated 2010).
# Tested on: Fusarium graminearum
# Assay type: cell-based
# Settings: Table 2B (Dm-AMP1 based libraries); improvement compared to reference defensin protein (Rs-AFP2 for Table 2B [sic])
row,Substance,Activity (1): antifungal activity of the NP against Fusarium graminearium
1,NLCERASKTWTGNCGNTKHCDNQCRNWEGAKHGACHKRNGKWKCFCYFNC (Defensin like) [L9-12],+++ (+++ indicates a >10-fold improvement)
2,NLCERASKTWTGNCGNTKHCDNQCKSWEGAKHGACHKRSGKWKCFCYFNC (Defensin like) [L9-04],++ (++ indicates a >5- to 10-fold improvement)
3,NLCERASKTWTGNCGNTKHCDNQCKNWEGAKHGACHVRSGKHKCFCYFNC (Defensin like) [L6-23],++ (++ indicates a >5- to 10-fold improvement)
4,NLCERASKTWTGNCGNTKHCDTQCRSWEGAKHGACHKRNGKWKCFCYFNC (Defensin like) [L10-14],++ (++ indicates a >5- to 10-fold improvement)
5,NLCERASKTWTGNCGNTKHCDNQCRNWEGAKHGACHVRNGKWKCFCYFNC (Defensin like) [L6-07],+++ (+++ indicates a >10-fold improvement)
6,NLCERASKTWTGNCGNTKHCDNQCKNWEGAKHGACHVRNGKHKCFCYFNC (Defensin like) [L6-08],+++ (+++ indicates a >10-fold improvement)
7,NLCERASKTWTGNCGNTKHCDNQCKNWEGAKHGACHVRNGKWKCFCYFNC (Defensin like) [L6-03],+++ (+++ indicates a >10-fold improvement)
8,NLCERASKTWTGNCGNTKHCDNQCRNWESAAHGACHKRSGKWKCFCYFNC (Defensin like) [L3-98],++ (++ indicates a >5- to 10-fold improvement)
9,NLCERASKTWTGNCGNTKHCDTQCKSWEGAKHGACHVRNGKWKCFCYFNC (Defensin like) [L6-52],+ (+ indicates a 1- to 5-fold improvement in activity compared to a reference defensin protein)
10,NLCERASKTWTGNCGNTKHCDNQCKSWEGAKHGACHKRNGKWKCFCYFNC (Defensin like) [L10-51],++ (++ indicates a >5- to 10-fold improvement)
11,NLCERASKTWTGNCGNTKHCDTQCKNWEGAKHGACHVRNGKWKCFCYFNC (Defensin like) [L6-77],++ (++ indicates a >5- to 10-fold improvement)
12,NLCERASKTWSSNCGNTKHCDTQCKNWEGAKHGACHVRNGKWKCFCYFNC (Defensin like) [L10-60],++ (++ indicates a >5- to 10-fold improvement)
13,NLCERASLTWTGNCGNTKHCDTQCKNWEGAKHGACHVRNGKWKCFCYFNC (Defensin like) [L3-02],++ (++ indicates a >5- to 10-fold improvement)
14,NLCERASKTWAGNCGNTKHCDNQCRSWEGAKHGACHVRNGKWKCFCYFNC (Defensin like) [L10-33],+ (+ indicates a 1- to 5-fold improvement in activity compared to a reference defensin protein)
15,NLCERASKTWTGNCGNTKHCDTQCRNWEGAKHGACHKRSGKWKCFCYFNC (Defensin like) [L6-33],++ (++ indicates a >5- to 10-fold improvement)
16,NLCERASKTWTGNCGNTKHCDNQCRNWEGAKHGACHVRNGKHKCFCYFNC (Defensin like) [L6-35],++ (++ indicates a >5- to 10-fold improvement)
17,NLCERASKTWTGNCGNTKHCDNQCRSWEGAKHGACHKRSGKWKCFCYFNC (Defensin like) [L10-77],++ (++ indicates a >5- to 10-fold improvement)

row,Substance,Activity (1): antifungal activity of the NP against Fusarium graminearium
1,NLCEKASKTWTGNCGNTKHCDNQCKNWESAAHGACHKRNGKWKCFCYFNC (Defensin like) [L3-79],++ (++ indicates a >5- to 10-fold improvement)
2,NLCERASKTWSGDCGNTKHCDNQCRNWEGAKHGACHKRNGKWKCFCYFNC (Defensin like) [L10-62],++ (++ indicates a >5- to 10-fold improvement)
3,NLCERASKTWTGNCGNTKHCDNQCRNWEGAKHGACHVRSGKWKCFCYFNC (Defensin like) [L10-79],++ (++ indicates a >5- to 10-fold improvement)
4,NLWEKASLTWTGNCGNTKHCDNQCKNWESAAHGACHKRSGKWMCFCYFNC (Defensin like) [L4-1],+ (+ indicates a 1- to 5-fold improvement in activity compared to a reference defensin protein)
5,NLCERASKTWTGNCGNTKHCDTQCKSWEGAKHGACHKRSGKWKCFCYFNC (Defensin like) [L5-21],+ (+ indicates a 1- to 5-fold improvement in activity compared to a reference defensin protein)
6,NLCERASKTWTGNCGNTKHCDTQCKNWESAKHGACHVRSGKHKCFCYFNC (Defensin like) [L3-28],++ (++ indicates a >5- to 10-fold improvement)
7,NLCERASKTWTGNCGNTKHCDTQCKSWEGAKHGACHVRSGKHKCFCYFNC (Defensin like) [L5-36],+ (+ indicates a 1- to 5-fold improvement in activity compared to a reference defensin protein)
8,NLCERASKTWTGNCGNTKHCDTQCRSWEGAKHGACHVRNGKWKCFCYFNC (Defensin like) [L6-62],+ (+ indicates a 1- to 5-fold improvement in activity compared to a reference defensin protein)
9,NLCERASKTWTGNCGNTKHCDTQCRNWEGARHGACHVRNGKWKCFCYFNC (Defensin like) [L10-71],++ (++ indicates a >5- to 10-fold improvement)
10,NLCERASKTWTGNCGNTKHCDTQCRSWEGAKHGACHVRNGKHKCFCYFNC (Defensin like) [L6-42],+ (+ indicates a 1- to 5-fold improvement in activity compared to a reference defensin protein)
11,NLCERASKTWTGNCGNTKHCDNQCKNWEGAKHGACHKRSGKWKCFCYFNC (Defensin like) [L10-25],+ (+ indicates a 1- to 5-fold improvement in activity compared to a reference defensin protein)
12,NLCERASKTWTGNCGNTKHCDTKCRSWESAKHGACHKRNGKWKCFCYFNC (Defensin like) [L3-46],++ (++ indicates a >5- to 10-fold improvement)
13,NLCERASKTWTGNCGNTKHCDNQCRNWEGAAHGACHKRNGKWKCFCYFNC (Defensin like) [L6-45],++ (++ indicates a >5- to 10-fold improvement)
14,NLCEKASKTWTGNCGNTKHCDNQCRSWEGAKHGACMKRSGKWKCFCYFNC [L10-76],++ (++ indicates a >5- to 10-fold improvement)
15,NLCERASKTWTGNCGNTKHCDTQCKIWEGAKHGACHKRSGKWKCFCYFNC (Defensin like) [L3-77],++ (++ indicates a >5- to 10-fold improvement)
16,NLCERASKTWTGNCGNTKHCDNQCRNWEGAKHGACHVRSGKHKCFCYFNC (Defensin like) [L6-20],++ (++ indicates a >5- to 10-fold improvement)

# Same assay, conditions: Table 2C (mixed diversity library); improvement compared to reference defensin protein DmAMP
row,Substance,Activity (1): antifungal activity of the NP against Fusarium graminearium
1,DGVKLCERPSQTWTGHCGNTKHCDKQCRNWEGAAHGACHKRSGKWKCFCYFNC (Defensin like) [L7-83],++ (++ indicates a >5- to 10-fold improvement)
2,DGVKLCERPSQTWSGNCGNTKHCDKQCRNWEKAKHGACHKRNGKWKCFCYFNC (Defensin like) [L7-123],+ (+ indicates a 1- to 5-fold improvement in activity compared to a reference defensin protein)
3,DGVKLCEKPSQTWTGHCGNTKHCDKQCKNWEGAKHGACHKRNGKWKCFCYFNC (Defensin like) [L7-178],++ (++ indicates a >5- to 10-fold improvement)
4,DGVKLCEKPSQTWSHCGNTKHCDNQCKNWEGAAHGACHKRSGKWKCFCYFNC (Defensin like) [L7-231],++ (++ indicates a >5- to 10-fold improvement)
5,--QKLCERPSQTWTGHCGNTKHCDKQCKNWEGAKHGACHVRNGKWKCFCYFNC (Defensin like) [L7-89],+ (+ indicates a 1- to 5-fold improvement in activity compared to a reference defensin protein)
6,--QKLCEKASKTWTGNCGNTKHCDKQCRSWEKAKHGACHVRNGKWKCFCYFNC (Defensin like) [L7-59],++ (++ indicates a >5- to 10-fold improvement)
7,--QKLCERASKTWTGHCGNTKHCDKQCKNWEKAKHGACHVRNGKWKCFCYFNC (Defensin like) [L7-34],+ (+ indicates a 1- to 5-fold improvement in activity compared to a reference defensin protein)
8,DGVKLCERASQTWTGHCGNTKHCDKQCKSWEKAKHGACHVRNGKWKCFCYFNC (Defensin like) [L7-15],++ (++ indicates a >5- to 10-fold improvement)
9,DGVKLCERASKTWTGNCGNTKHCDNQCKSWEGAKHGACHVRNGKHKCFCYFNC (Defensin like) [L7-76],++ (++ indicates a >5- to 10-fold improvement)
10,--QKLCEKASQTWTGHCGNTKHCDNQCRNWEKAAHGACHVRNGKWKCFCYFNC (Defensin like) [L7-19],+ (+ indicates a 1- to 5-fold improvement in activity compared to a reference defensin protein)
11,DGVKLCEKPSKTWSGHCGNTKHCDKQCKNWEKAKHGACHKRNGKWKCFCYFNC (Defensin like) [L7-113],+ (+ indicates a 1- to 5-fold improvement in activity compared to a reference defensin protein)
12,DGVKLCERPSQTWTGNCGNTKHCDKQCKSWEGAKHGACHKRNGKWKCFCYFNC (Defensin like) [L7-99],+ (+ indicates a 1- to 5-fold improvement in activity compared to a reference defensin protein)
13,DGVKLCERASKTWTGNCGNTKHCDKQCKNWEGAKHGACHKRNGKWKCFCYFNC (Defensin like) [L7-107],+ (+ indicates a 1- to 5-fold improvement in activity compared to a reference defensin protein)
